“Also recorded” adds a separate entry of the source. Residues, ends and D or L forms follow the SMILES beside them. No end group written: not given here.
How the values were obtained:
[1] = tested on: isolated adult rabbit cardiac myocytes; assay: Sarcomere shortening in isolated adult rabbit cardiac myocytes; format: cell-based; details: pacing at 0.5 Hz and 1 Hz
Method: FIG. 7. A. Representative sarcomere shortening traces in isolated adult rabbit cardiac myocytes paced at 0.5 Hz. A signal-averaged recording from 10 traces was made in myocytes 1 day after isolation (n=3). Recordings show shortening before and 15 minutes after initiating perfusion with 10^−10 M hRFRP-1 or media (control) at 37° C.
Adult rat and rabbit ventricular cardiac myocytes were isolated as previously described (Westfall, M. V. Et al. (1997), Westfall, M. V. and Borton, A. R. (2003)). Hearts from Sprague-Dawley rats and New Zealand white rabbits were perfused and enzymatically digested to isolate myocytes; the protocol was approved by The University of Michigan University Committee on Use and Care of Animals (UCUCA) in accordance with university and federal regulatory guidelines. […]
Sarcomere shortening was detected using a video-based detection system (IonOptix, MA, USA) as described earlier (Westfall, M. V. and Borton, A. R. (2003)). […] Signal averaged data were analyzed to determine resting sarcomere length, shortening amplitude (peak shortening), shortening rate (departure velocity), and re-lengthening rate (return velocity), as previously described (Westfall, M. V. Et al. (1997), Westfall, M. V. and Borton, A. R. (2003)), in 7-20 myocytes from 3-4 rats for each peptide concentration, bis-1, and media.

[2] = tested on: isolated adult rat cardiac myocytes; format: cell-based; details: peptides at 10^−8M or 10^−7M; peak shortening, departure and return velocity
Text: Adult rat and rabbit ventricular cardiac myocytes were isolated as previously described (Westfall, M. V. Et al. (1997), Westfall, M. V. and Borton, A. R. (2003)). Hearts from Sprague-Dawley rats and New Zealand white rabbits were perfused and enzymatically digested to isolate myocytes; the protocol was approved by The University of Michigan University Committee on Use and Care of Animals (UCUCA) in accordance with university and federal regulatory guidelines. Aliquots of isolated ventricular myocytes were plated on laminin-coated glass coverslips in serum-containing Dulbecco's Modified Eagle Media (Invitrogen, CA, US) supplemented with 5% fetal bovine serum, and 50 U/ml penicillin and 50 μg/ml streptomycin (pen/strep; Sigma-Aldrich, MO, US). Two hours later, media was replaced with serum-free M199 (Invitrogen) supplemented with 1.8 mM Ca^2+, 10 mM HEPES, 10 mM glutathione, and pen/strep. Rat myocytes were transferred to a stimulation chamber and electrically paced the day after isolation (Zornik, E. Et al. (1999), Westfall, M. V. Et al. (1997)). Media was changed daily for all myocyte preparations.
Sarcomere shortening was detected using a video-based detection system (IonOptix, MA, USA) as described earlier (Westfall, M. V. and Borton, A. R. (2003)). Rat myocytes were paced at 0.2 Hz and rabbit myocytes were paced at 0.5 Hz or 1.0 Hz for these studies. Recordings were made prior to application of each peptide concentration, the protein kinase C (PKC) inhibitor bisindolylmaleimide-1, (bis-1; CalBiochem/EMD, NJ, US), or media only (control, C) and at 1, 3, 5, 10 and 15 minutes after application of peptide, bis-1, or media. Signal averaged data were analyzed to determine resting sarcomere length, shortening amplitude (peak shortening), shortening rate (departure velocity), and re-lengthening rate (return velocity), as previously described (Westfall, M. V. Et al. (1997), Westfall, M. V. and Borton, A. R. (2003)), in 7-20 myocytes from 3-4 rats for each peptide concentration, bis-1, and media.

mouse heart = assay: Echocardiography in mice after tail-vein injection; format: in vivo
Method: Echocardiograms were performed as previously described (Boluyl, M. O. Et al. (2004)) according to the recommendations of the American Society of Echocardiography. All echocardiography was performed by one registered echocardiographer. Female C57BL/6 mice were weighed to accurately calculate the amount of peptide delivered per kilogram body weight (kg bw). Animal use for echocardiography was approved by The University of Michigan UCUCA in accordance with university and federal regulatory guidelines. Physiological saline or peptide was intravenously delivered via tail-vein injections to a total volume of 150 μl to achieve 5 μmols or 500 ηmols hRFRP-1/kg bw. Each animal was used only once for an injectant, either physiological saline or peptide (n=4-5). […] Heart rate along with left ventricular end-systolic and end-diastolic dimensions were measured from the two-dimensional sector scans obtained from the parasternal long axis and apical four chamber views using the conventions of the American Society of Echocardiography. […] Left ventricular volumes were measured at end systole (Vols) and end diastole (Vold) and used to calculate stroke volume (SV=Vold−Vols) and ejection fraction (EF %=endocardial SV/endocardial Vold×100). Cardiac output (CO=endocardial SV×heart rate) was calculated from stroke volume and heart rate. […]

Molecule	arrhythmic beats and after-contractions [1]	character relative to hRFRP-1 on myocyte contractile function (agonist, antagonist, reverse agonist; in words) [2]	effect on the hRFRP-1-induced decrease of contractile performance in vivo (mouse heart; given with hRFRP-1, tail-vein injection)	effect on cardiac function in vivo when applied alone (echocardiographic parameters) (mouse heart; tail-vein injection)
CSCC[C@H](N)C(=O)N1CCC[C@H]1C(=O)N[C@@H](Cc1cnc[nH]1)C(=O)N[C@@H](CO)C(=O)N[C@@H](Cc1ccccc1)C(=O)N[C@@H](C)C(=O)N[C@@H](CC(N)=O)C(=O)N[C@@H](CC(C)C)C(=O)N1CCC[C@H]1C(=O)N[C@@H](CC(C)C)C(=O)N[C@@H](CCCNC(=N)N)C(=O)N[C@@H](Cc1ccccc1)C(N)=O [hRFRP-1] (H-MPHSFANLPLRF-NH2)	not observed	–	–	–
LPLAFamide (LPLAF-NH2)	–	hRFRP-1 antagonist	blocked the effects of hRFRP-1	slight increase in cardiac function; also recorded: enhances cardiac function

— patent US9527889B2, “RFamide-related peptides and methods thereof” (THE REGENTS OF THE UNIVERSITY OF MICHIGAN, priority 2010, dated 2016)
